The test system of assay [1] is ACHN. Put plainly: Cytotoxicity against human ACHN cells assessed as cell viability at 10 uM after 72 hrs by sulforhodamine B assay relative to control. The conditions noted are these: read-out: Activity. In kind it is functional.
The nature of assay [2]: Cytotoxicity against human HCT15 cells assessed as cell viability at 10 uM after 72 hrs by sulforhodamine B assay relative to control. It counts as functional. The conditions noted are these: HCT-15, 72 h, read-out: Activity. A general note: The SRB assay estimates cell density from bound dye.
For assay [3], the system named is MDA-MB-231. Put plainly: Cytotoxicity against human MDA-MB-231 cells assessed as cell viability at 10 uM after 72 hrs by sulforhodamine B assay relative to control. It counts as functional. Particulars: MDA-MB-231, 72 h, read-out: Activity.
The subject of assay [4] is NCI-H23. Put plainly: Cytotoxicity against human NCI-H23 cells assessed as cell viability at 10 uM after 72 hrs by sulforhodamine B assay relative to control. In kind it is functional. Particulars: NCI-H23, 72 h, read-out: Activity.
Assay [5] is described as follows: Cytotoxicity against human NUGC3 cells assessed as cell viability at 10 uM after 72 hrs by sulforhodamine B assay relative to control. It counts as functional. Particulars: NUGC-3, 72 h, read-out: Activity.
Assay [6] can be described thus: Cytotoxicity against human PC3 cells assessed as cell viability at 10 uM after 72 hrs by sulforhodamine B assay relative to control. Particulars: PC-3, 72 h, read-out: Activity. It counts as functional.
Assay [7] deals with Nuclear factor NF-kappa-B complex (Homo sapiens) (UniProt Q00653+P19838+Q04206). Briefly: Inhibition of NF-kappaB (unknown origin) transcriptional activity in LPS-induced mouse RAW264.7 cells at 30 uM after 1 hr by secreted alkaline phosphatase assay relative to control. It counts as cell-based.
Nuclear factor NF-kappa-B complex (Homo sapiens), sequence (P19838 whole entry, looked up): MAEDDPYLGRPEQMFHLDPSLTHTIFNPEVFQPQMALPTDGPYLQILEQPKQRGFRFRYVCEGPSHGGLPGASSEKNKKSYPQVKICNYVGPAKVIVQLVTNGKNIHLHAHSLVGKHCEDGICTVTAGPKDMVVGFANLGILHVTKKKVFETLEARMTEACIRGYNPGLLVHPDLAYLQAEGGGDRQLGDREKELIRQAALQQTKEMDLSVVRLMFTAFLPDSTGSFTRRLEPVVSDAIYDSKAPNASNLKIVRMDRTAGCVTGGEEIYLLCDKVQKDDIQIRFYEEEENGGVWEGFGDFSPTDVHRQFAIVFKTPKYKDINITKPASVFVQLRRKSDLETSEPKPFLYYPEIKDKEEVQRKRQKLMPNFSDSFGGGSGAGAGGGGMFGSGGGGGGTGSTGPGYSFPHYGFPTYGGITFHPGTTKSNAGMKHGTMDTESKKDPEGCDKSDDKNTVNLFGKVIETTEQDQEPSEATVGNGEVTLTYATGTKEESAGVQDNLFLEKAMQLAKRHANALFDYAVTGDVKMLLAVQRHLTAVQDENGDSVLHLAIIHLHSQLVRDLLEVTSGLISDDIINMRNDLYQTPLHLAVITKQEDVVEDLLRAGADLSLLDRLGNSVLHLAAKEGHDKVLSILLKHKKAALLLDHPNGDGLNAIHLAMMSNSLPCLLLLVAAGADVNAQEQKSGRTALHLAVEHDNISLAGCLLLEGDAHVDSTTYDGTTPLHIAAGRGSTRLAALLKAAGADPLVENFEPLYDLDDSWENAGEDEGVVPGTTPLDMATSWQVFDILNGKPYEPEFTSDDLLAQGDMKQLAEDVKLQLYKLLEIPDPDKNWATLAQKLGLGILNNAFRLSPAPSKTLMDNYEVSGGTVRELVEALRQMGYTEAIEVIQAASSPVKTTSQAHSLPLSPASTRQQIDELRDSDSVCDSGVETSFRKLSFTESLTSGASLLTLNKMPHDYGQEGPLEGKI
Nuclear factor NF-kappa-B complex (Homo sapiens), sequence (Q00653 whole entry, looked up): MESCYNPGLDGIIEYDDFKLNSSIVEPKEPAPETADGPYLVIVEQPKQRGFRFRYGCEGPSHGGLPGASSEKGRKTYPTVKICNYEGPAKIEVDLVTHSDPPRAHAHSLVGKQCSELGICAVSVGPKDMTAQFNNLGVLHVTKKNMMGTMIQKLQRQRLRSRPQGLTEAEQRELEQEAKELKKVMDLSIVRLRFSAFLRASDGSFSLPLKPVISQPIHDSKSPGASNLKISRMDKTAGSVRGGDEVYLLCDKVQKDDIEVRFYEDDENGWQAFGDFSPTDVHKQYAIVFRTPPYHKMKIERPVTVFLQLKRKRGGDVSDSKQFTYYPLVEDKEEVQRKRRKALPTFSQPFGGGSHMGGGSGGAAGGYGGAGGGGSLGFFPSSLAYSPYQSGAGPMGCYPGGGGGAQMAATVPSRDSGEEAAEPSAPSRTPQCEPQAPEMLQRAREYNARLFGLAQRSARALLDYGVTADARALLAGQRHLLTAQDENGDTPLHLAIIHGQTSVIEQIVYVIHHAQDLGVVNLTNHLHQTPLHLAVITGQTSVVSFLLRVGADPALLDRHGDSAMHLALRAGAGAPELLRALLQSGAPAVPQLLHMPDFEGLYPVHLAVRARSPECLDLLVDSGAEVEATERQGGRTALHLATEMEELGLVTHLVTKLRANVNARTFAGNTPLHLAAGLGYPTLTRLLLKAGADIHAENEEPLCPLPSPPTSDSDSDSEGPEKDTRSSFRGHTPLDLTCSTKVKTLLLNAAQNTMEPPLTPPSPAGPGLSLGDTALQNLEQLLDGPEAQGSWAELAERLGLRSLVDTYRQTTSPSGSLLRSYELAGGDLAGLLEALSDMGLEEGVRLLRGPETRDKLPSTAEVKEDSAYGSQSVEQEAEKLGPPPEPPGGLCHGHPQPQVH
Nuclear factor NF-kappa-B complex (Homo sapiens), sequence (Q04206 whole entry, looked up): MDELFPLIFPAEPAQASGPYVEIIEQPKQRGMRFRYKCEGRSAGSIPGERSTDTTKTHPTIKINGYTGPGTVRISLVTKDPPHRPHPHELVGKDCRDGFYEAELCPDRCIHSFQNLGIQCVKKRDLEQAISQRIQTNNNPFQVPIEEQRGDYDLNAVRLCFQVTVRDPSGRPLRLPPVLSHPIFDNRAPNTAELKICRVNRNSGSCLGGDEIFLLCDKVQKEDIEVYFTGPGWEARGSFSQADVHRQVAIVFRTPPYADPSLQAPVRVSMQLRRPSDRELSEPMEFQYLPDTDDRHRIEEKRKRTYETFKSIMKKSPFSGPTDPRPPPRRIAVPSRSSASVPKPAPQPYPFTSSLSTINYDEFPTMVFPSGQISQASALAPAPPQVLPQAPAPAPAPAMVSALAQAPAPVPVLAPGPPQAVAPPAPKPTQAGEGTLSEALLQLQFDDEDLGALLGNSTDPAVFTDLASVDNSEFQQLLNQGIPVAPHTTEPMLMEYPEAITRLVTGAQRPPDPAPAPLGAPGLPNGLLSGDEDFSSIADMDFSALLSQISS

One may read the inhibition as the percentage by which the read-out fell short of the control. A higher inhibition goes with a response far below the control. Turning to `O=C(Nc1cccc(Cl)c1)c1cc2ccccc2o1`, the viability at 10 µM was found to be 69% in assay [1]; 52% in assay [2]; 80% in assay [3]; 61% in assay [4]; 83% in assay [5]; 95% in assay [6]. The inhibition in assay [7] was 37%.
Take `O=C(Nc1cccc(O)c1)c1cc2ccccc2o1`: the viability at 10 µM is 84% in assay [1]; 85% in assay [2]; 100% in assay [3]; 95% in assay [4]; 87% in assay [5]; 90% in assay [6]. This molecule gave an inhibition in assay [7] of 41%.
Consider `COc1ccc(NC(=O)C2Cc3ccccc3O2)cc1` (configuration not stated), for which the viability at 10 µM in assay [1] amounted to 140%; in assay [2], 89%; in assay [3] it was 94%; in assay [4] it was 102%; in assay [5] it was 108%; in assay [6], 81%. This molecule also came in with an inhibition in assay [7] of 22.5%.
In the case of `Cc1ccc(NC(=O)C2Cc3ccccc3O2)cc1` (configuration not stated), the viability at 10 µM in assay [1] amounted to 134%; in assay [2], 100%; in assay [3] it was 96%; in assay [4] it was 105%; in assay [5], 112%; in assay [6] it was 80%. This molecule displayed an inhibition in assay [7] of 34.5%.
With `O=C(Nc1ccc(Cl)cc1)c1cc2ccccc2o1`, the viability at 10 µM in assay [1] was 89%; in assay [2] it was 68%; in assay [3] it was 96%; in assay [4], 92%; in assay [5] it was 91%; in assay [6], 84%. In addition, the inhibition in assay [7] was found to be 43%.
Regarding `Cc1ccc(NC(=O)C2Cc3ccccc3O2)cc1C` (configuration not stated), the viability at 10 µM was determined as 137% in assay [1]; 97% in assay [2]; 86% in assay [3]; 92% in assay [4]; 99% in assay [5]; 94% in assay [6]. For the same molecule, in assay [7], the inhibition was determined as 44.5%.
Consider `COc1cccc(NC(=O)C2Cc3ccccc3O2)c1` (configuration not stated), for which the viability at 10 µM in assay [1] came out at 135%; in assay [2], 99%; in assay [3], 80%; in assay [4], 102%; in assay [5] it was 106%; in assay [6], 89%. The inhibition in assay [7] was determined as 16.5%.
Take `O=C(Nc1cc(C(F)(F)F)cc(C(F)(F)F)c1)C1Cc2ccccc2O1` (configuration not stated): the viability at 10 µM in assay [1] was 94%; in assay [2] it was 92%; in assay [3], 105%; in assay [4], 92%; in assay [5], 105%; in assay [6] it was 96%. The inhibition in assay [7] worked out at 25%.
For the molecule `COc1ccc(OC)c(NC(=O)c2cc3ccccc3o2)c1`, the viability at 10 µM in assay [1] was 102%; in assay [2] it was 97%; in assay [3], 101%; in assay [4], 103%; in assay [5], 91%; in assay [6] it was 106%. The molecule also yielded an inhibition in assay [7] of 23%.
Consider `O=C(Nc1cccc(C(F)(F)F)c1)C1Cc2ccccc2O1` (configuration not stated), for which the viability at 10 µM turned out to be 134% in assay [1]; 95% in assay [2]; 102% in assay [3]; 100% in assay [4]; 93% in assay [5]; 69% in assay [6]. In addition, in assay [7], the inhibition amounted to 30.5%.
`O=C(Nc1ccccc1O)C1Cc2ccccc2O1` (configuration not stated): the viability at 10 µM in assay [1] stood at 134%; in assay [2], 102%; in assay [3], 83%; in assay [4], 102%; in assay [5], 103%; in assay [6], 109%. The molecule also showed an inhibition in assay [7] of 20.5%.
On to `O=C(Nc1cc(C(F)(F)F)ccc1C(F)(F)F)c1cc2ccccc2o1`, for which the viability at 10 µM in assay [1] turned out to be 84%; in assay [2], 88%; in assay [3], 98%; in assay [4], 77%; in assay [5], 89%; in assay [6] it was 95%. For the same molecule, in assay [7], the inhibition is 28.5%.
As for `Cc1ccc(NC(=O)c2cc3ccccc3o2)cc1C`, the viability at 10 µM in assay [1] was 103%; in assay [2], 95%; in assay [3] it was 92%; in assay [4], 100%; in assay [5] it was 91%; in assay [6] it was 92%. In assay [7], this molecule showed an inhibition of 70%.
Regarding `O=C(Nc1cccc([N+](=O)[O-])c1)c1cc2ccccc2o1`, the viability at 10 µM in assay [1] is 93%; in assay [2], 88%; in assay [3], 111%; in assay [4] it was 99%; in assay [5], 98%; in assay [6], 95%. In addition, in assay [7], the inhibition was determined as 11%.
For `COc1cc(NC(=O)c2cc3ccccc3o2)cc(OC)c1`, the viability at 10 µM in assay [1] was found to be 102%; in assay [2], 95%; in assay [3] it was 106%; in assay [4] it was 102%; in assay [5], 90%; in assay [6] it was 92%. Moreover, the inhibition in assay [7] was found to be 63%.
Regarding `Cc1cccc(NC(=O)c2cc3ccccc3o2)c1`, the viability at 10 µM in assay [1] is 93%; in assay [2], 87%; in assay [3] it was 106%; in assay [4] it was 101%; in assay [5], 99%; in assay [6] it was 94%. For the same molecule, the inhibition in assay [7] was 38%.
For the molecule `O=C(Nc1ccccc1O)c1cc2ccccc2o1`, the viability at 10 µM in assay [1] turned out to be 84%; in assay [2], 58%; in assay [3], 85%; in assay [4], 86%; in assay [5] it was 84%; in assay [6], 68%. In assay [7], this molecule had an inhibition of 23%.
As to `O=C(Nc1ccc(C(F)(F)F)cc1)c1cc2ccccc2o1`, the viability at 10 µM in assay [1] worked out at 79%; in assay [2] it was 80%; in assay [3], 89%; in assay [4] it was 89%; in assay [5], 75%; in assay [6] it was 74%. The same molecule had an inhibition in assay [7] of 34.5%.
In the case of `O=C(Nc1cc(Cl)cc(Cl)c1)c1cc2ccccc2o1`, the viability at 10 µM was 99% in assay [1]; 95% in assay [2]; 102% in assay [3]; 100% in assay [4]; 93% in assay [5]; 99% in assay [6]. Besides, in assay [7], the inhibition turned out to be 20%.
Regarding `COc1ccc(OC)c(NC(=O)C2Cc3ccccc3O2)c1` (configuration not stated), the viability at 10 µM worked out at 126% in assay [1]; 97% in assay [2]; 89% in assay [3]; 99% in assay [4]; 95% in assay [5]; 81% in assay [6]. Also, the inhibition in assay [7] is 39.5%.
For the molecule `COc1ccc(NC(=O)C2Cc3ccccc3O2)cc1OC` (configuration not stated), the viability at 10 µM worked out at 127% in assay [1]; 92% in assay [2]; 71% in assay [3]; 101% in assay [4]; 87% in assay [5]; 38% in assay [6]. The inhibition in assay [7] came out at 21.5%.
For `Cc1ccccc1NC(=O)C1Cc2ccccc2O1` (configuration not stated), the viability at 10 µM worked out at 108% in assay [1]; 88% in assay [2]; 103% in assay [3]; 91% in assay [4]; 91% in assay [5]; 87% in assay [6]. The inhibition in assay [7] stood at 38%.
Consider `Cc1ccc(C)c(NC(=O)c2cc3ccccc3o2)c1`, for which the viability at 10 µM worked out at 82% in assay [1]; 94% in assay [2]; 102% in assay [3]; 94% in assay [4]; 88% in assay [5]; 98% in assay [6]. The molecule also showed an inhibition in assay [7] of 58%.
Consider `Cc1ccccc1NC(=O)c1cc2ccccc2o1`, for which the viability at 10 µM in assay [1] came to 106%; in assay [2], 93%; in assay [3] it was 101%; in assay [4] it was 89%; in assay [5] it was 98%; in assay [6], 100%. This molecule also displayed an inhibition in assay [7] of 46%.
Consider `O=C(Nc1ccccc1[N+](=O)[O-])c1cc2ccccc2o1`, for which the viability at 10 µM stood at 91% in assay [1]; 73% in assay [2]; 102% in assay [3]; 95% in assay [4]; 95% in assay [5]; 92% in assay [6]. Further, in assay [7], the inhibition was 25.5%.
With `Cc1cc(C)cc(NC(=O)c2cc3ccccc3o2)c1`, the viability at 10 µM was determined as 101% in assay [1]; 79% in assay [2]; 94% in assay [3]; 99% in assay [4]; 93% in assay [5]; 94% in assay [6]. Moreover, the inhibition in assay [7] amounted to 70%.

Values taken from ChEMBL document CHEMBL3425509, “Design, synthesis, and biological evaluation of benzofuran- and 2,3-dihydrobenzofuran-2-carboxylic acid N-(substituted)phenylamide derivatives as anticancer agents and inhibitors of NF-κB” (Bioorg Med Chem Lett, 2015).
